Measurements taken from ChEMBL document CHEMBL1201862, “PubChem BioAssay data set” (2004).
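Compound exposure: 48 hours, 5 concentrations, 96-well plates. At the GI50, growth is halved.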 The source made the active and inactive calls. No stated cut-off is given here; in the data, active = GI50 up to about 1.1 µM and inactive = higher.

Columns and labels:
Assay in all cases: DTP human tumour cell line panel, 48 h
MOLT-4 = test system: MOLT-4
SR = test system: SR
NCI-H522 = test system: NCI-H522
IGROV-1 = test system: IGROV-1
Malme-3M = test system: Malme-3M
HOP-92 = test system: HOP-92
ACHN = test system: ACHN
SN12C = test system: SN12C
RXF 393 = test system: RXF 393
CCRF-CEM = test system: CCRF-CEM
SF-268 = test system: SF-268
SNB-75 = test system: SNB-75
NCI-H226 = test system: NCI-H226
SK-OV-3 = test system: SK-OV-3
SK-MEL-2 = test system: SK-MEL-2

| Structure (SMILES) | GI50 (MOLT-4) | GI50 (SR) | GI50 (NCI-H522) | GI50 (IGROV-1) | GI50 (Malme-3M) | GI50 (HOP-92) | GI50 (ACHN) | GI50 (SN12C) | GI50 (RXF 393) | GI50 (CCRF-CEM) | GI50 (SF-268) | GI50 (SNB-75) | GI50 (NCI-H226) | GI50 (SK-OV-3) | GI50 (SK-MEL-2) |
| --- | --- | --- | --- | --- | --- | --- | --- | --- | --- | --- | --- | --- | --- | --- | --- |
| Nc1c(Br)c(=O)[nH]c(=O)n1COCCO | > 100 µM (inactive) | > 100 µM (inactive) | > 100 µM (inactive) | > 100 µM (inactive) | > 100 µM (inactive) | > 100 µM (inactive) | > 100 µM (inactive) | > 100 µM (inactive) | > 100 µM (inactive) | > 100 µM (inactive) | > 100 µM (inactive) | > 100 µM (inactive) |  |  |  |
| C[n+]1cn(CC(=O)c2ccccc2)c(C(N)=O)c1N | > 100 µM (inactive) | > 100 µM (inactive) | 77.6 µM (inactive) | > 100 µM (inactive) | > 100 µM (inactive) | > 100 µM (inactive) | > 100 µM (inactive) | > 100 µM (inactive) |  | > 100 µM (inactive) | > 100 µM (inactive) | > 100 µM (inactive) | > 100 µM (inactive) | > 100 µM (inactive) | > 100 µM (inactive) |
| O=c1[nH]c(=O)n(C2CC(O)C(CO)O2)cc1C#Cc1c(F)c(F)c(F)c(F)c1F (configuration not stated) | > 100 µM (inactive) | > 100 µM (inactive) | > 10 µM (inactive) |  | > 100 µM (inactive) |  | > 100 µM (inactive) | > 100 µM (inactive) |  | > 100 µM (inactive) | > 100 µM (inactive) | > 100 µM (inactive) | > 100 µM (inactive) | > 100 µM (inactive) | > 100 µM (inactive) |
| COc1nc2c(OC)cccc2c(OC)c1C=O | 61.5 µM (inactive) |  | > 100 µM (inactive) | > 100 µM (inactive) | > 100 µM (inactive) |  | > 100 µM (inactive) | > 100 µM (inactive) | > 100 µM (inactive) | > 100 µM (inactive) |  | 30.8 µM (inactive) | > 100 µM (inactive) | > 100 µM (inactive) | > 100 µM (inactive) |
| CC(C)(C)CC(C)(C)c1cc2c(O)c(c1)Cc1cc(C(C)(C)CC(C)(C)C)cc(c1O)Cc1cc(C(C)(C)CC(C)(C)C)cc(c1O)Cc1cc(C(C)(C)CC(C)(C)C)cc(c1O)Cc1cc(C(C)(C)CC(C)(C)C)cc(c1O)C2 | > 100 µM (inactive) |  | > 100 µM (inactive) | > 100 µM (inactive) | > 100 µM (inactive) | > 100 µM (inactive) | > 100 µM (inactive) | > 100 µM (inactive) | > 100 µM (inactive) | > 100 µM (inactive) | > 100 µM (inactive) | > 100 µM (inactive) |  |  | > 100 µM (inactive) |
| CN(C)C=C1C(Cl)=C(C=O)CC(C=O)=C1Cl | 2.54 µM (inactive) |  | 1.86 µM (inactive) | 16.1 µM (inactive) | 10.4 µM (inactive) | 4.2 µM (inactive) | 12.9 µM (inactive) | > 100 µM (inactive) | 6.21 µM (inactive) | 2.5 µM (inactive) | 8.17 µM (inactive) | 15.4 µM (inactive) |  | 29.4 µM (inactive) | 17.6 µM (inactive) |
| CCN(CC)c1ccc(/N=N/c2ccc(-c3nc4cccnc4o3)cc2)cc1 | > 100 µM (inactive) |  | 66.4 µM (inactive) | > 100 µM (inactive) | > 100 µM (inactive) | > 100 µM (inactive) | > 100 µM (inactive) | > 100 µM (inactive) | > 100 µM (inactive) | > 100 µM (inactive) | > 100 µM (inactive) | > 100 µM (inactive) | > 100 µM (inactive) |  | > 100 µM (inactive) |
| Cc1cc(NS(=O)(=O)c2ccc(Nc3c4ccccc4nc4c(C(=O)Nc5ccc(S(=O)(=O)N=C(N)N)cc5)cccc34)cc2)no1 | > 100 µM (inactive) |  | > 100 µM (inactive) | > 100 µM (inactive) | > 100 µM (inactive) | > 100 µM (inactive) | > 100 µM (inactive) | > 100 µM (inactive) | > 100 µM (inactive) | > 100 µM (inactive) | > 100 µM (inactive) | > 100 µM (inactive) |  | > 100 µM (inactive) | > 100 µM (inactive) |
| COC12OCCN(C)C1=CC(=O)C1N=NCC12 (configuration not stated) | > 100 µM (inactive) |  | > 100 µM (inactive) | > 100 µM (inactive) |  | > 100 µM (inactive) |  | > 100 µM (inactive) | > 100 µM (inactive) | > 100 µM (inactive) |  | > 100 µM (inactive) | > 100 µM (inactive) | > 100 µM (inactive) |  |
| CN(C)C(=S)/N=c1\ss/c(=N\C(=S)N(C)C)n1-c1cccc(Cl)c1 | > 100 µM (inactive) | > 100 µM (inactive) | > 100 µM (inactive) | > 100 µM (inactive) | > 100 µM (inactive) |  | > 100 µM (inactive) | > 100 µM (inactive) | 79.6 µM (inactive) | > 100 µM (inactive) | > 100 µM (inactive) | 36.6 µM (inactive) | > 100 µM (inactive) | > 10 µM (inactive) | > 100 µM (inactive) |
| Cc1ccc(S(=O)(=O)O/N=C2\CCC\C2=C/c2ccccc2)cc1 | 13 µM (inactive) | 16.4 µM (inactive) | 18.9 µM (inactive) | 26.2 µM (inactive) |  | 15.7 µM (inactive) | 11.1 µM (inactive) | 45 µM (inactive) | 20.3 µM (inactive) | 58.6 µM (inactive) | 8.87 µM (inactive) | 20.2 µM (inactive) | 18.5 µM (inactive) | 63.4 µM (inactive) | 16.9 µM (inactive) |
| COc1ccccc1NC(=O)C1=C(C)NC(C)=C(C(=O)Nc2ccccc2OC)C1c1cccc2c1OCO2 | 20.7 µM (inactive) | 30.5 µM (inactive) |  | > 100 µM (inactive) | > 100 µM (inactive) | > 100 µM (inactive) | 58.9 µM (inactive) | > 100 µM (inactive) |  | 34.6 µM (inactive) | > 100 µM (inactive) | 14.1 µM (inactive) | > 100 µM (inactive) | > 100 µM (inactive) | 48.2 µM (inactive) |
| COc1ccc2c(c1)CCCC1C3=NCCC3(C)CSC21 (configuration not stated) | 32.6 µM (inactive) |  | 86.9 µM (inactive) | > 100 µM (inactive) |  |  |  | > 100 µM (inactive) | 95.5 µM (inactive) | 70.3 µM (inactive) | > 100 µM (inactive) | 67.8 µM (inactive) |  | > 100 µM (inactive) |  |
| CCC1(Br)C(=O)NC(=O)N(C2CC(O)C(CO)O2)C1N=[N+]=[N-] (configuration not stated) | > 100 µM (inactive) |  | 94.4 µM (inactive) | > 100 µM (inactive) | > 100 µM (inactive) | > 100 µM (inactive) | > 100 µM (inactive) | > 100 µM (inactive) | 66.7 µM (inactive) | 44 µM (inactive) | > 100 µM (inactive) | > 100 µM (inactive) |  | > 100 µM (inactive) | > 100 µM (inactive) |
| OCC(O)C(O)c1nn(-c2ccccc2)c2nc3cc(Cl)c(Cl)cc3nc12 (configuration not stated) | 13.7 µM (inactive) |  | 26.1 µM (inactive) | 24.6 µM (inactive) | 17.2 µM (inactive) | 35.7 µM (inactive) | 19.5 µM (inactive) | 63.5 µM (inactive) | 21.2 µM (inactive) | 35.2 µM (inactive) | 21.4 µM (inactive) | 21.8 µM (inactive) | 21.4 µM (inactive) | 30.6 µM (inactive) | 22.3 µM (inactive) |
| CC1=CC2C(C=C1)S(=O)(=O)N1CC21c1ccccc1 (configuration not stated) |  | 90.8 µM (inactive) | > 100 µM (inactive) | > 100 µM (inactive) | > 100 µM (inactive) | 15.1 µM (inactive) | > 100 µM (inactive) | > 100 µM (inactive) |  | > 100 µM (inactive) | > 100 µM (inactive) | > 100 µM (inactive) |  | > 100 µM (inactive) | > 100 µM (inactive) |
| NC(=O)C(=Cc1ccc(C(O)P(=O)(O)O)cc1)C(N)=O (configuration not stated) | > 100 µM (inactive) |  | > 100 µM (inactive) | > 100 µM (inactive) | > 100 µM (inactive) | > 100 µM (inactive) | > 100 µM (inactive) | > 100 µM (inactive) | > 100 µM (inactive) |  |  | > 100 µM (inactive) |  | > 100 µM (inactive) | > 100 µM (inactive) |
| CCC1(CN(C)C)CC/C(=C\c2ccc(OC)cc2)C1=O (configuration not stated) | 3.14 µM (inactive) |  | 31.5 µM (inactive) | > 100 µM (inactive) | > 100 µM (inactive) | > 100 µM (inactive) | > 100 µM (inactive) | > 100 µM (inactive) | > 100 µM (inactive) | 30 µM (inactive) | > 100 µM (inactive) | > 100 µM (inactive) | > 100 µM (inactive) |  | > 100 µM (inactive) |
| COC1CC(O[C@H]2CC[C@@]3(C)C(=CCC4(O)C3CCC35C(=O)OC6(C)O[C@@]43CCC65)C2)OC(C)C1O (some centres not stated) | > 100 µM (inactive) | > 100 µM (inactive) | > 100 µM (inactive) | > 100 µM (inactive) | > 100 µM (inactive) |  | > 100 µM (inactive) | > 100 µM (inactive) | > 100 µM (inactive) | > 100 µM (inactive) | > 100 µM (inactive) | > 100 µM (inactive) | > 100 µM (inactive) | > 100 µM (inactive) | > 100 µM (inactive) |
| C[C@@H](C1CCC2C3C(=CC(=O)[C@@]21C)[C@H](C)[C@]1(CCC(=O)O1)C1OC31)[C@H]1C[C@]2(C)O[C@@](C)(O1)OC2(C)C (some centres not stated) | > 100 µM (inactive) |  | > 100 µM (inactive) | > 100 µM (inactive) |  | > 100 µM (inactive) | > 100 µM (inactive) | > 100 µM (inactive) | > 100 µM (inactive) | > 100 µM (inactive) | > 100 µM (inactive) |  |  | > 100 µM (inactive) |  |
| C/N=C(\S)N/N=C/C(C)=N/N/C(S)=N/C | 0.323 µM (active) |  | > 100 µM (inactive) |  | > 100 µM (inactive) |  | > 100 µM (inactive) | > 100 µM (inactive) | > 100 µM (inactive) |  | > 100 µM (inactive) |  |  | > 100 µM (inactive) | > 100 µM (inactive) |
